Laboratory results as given in patent publication US20090298882A1, “THIOXOISOINDOLINE COMPOUNDS AND COMPOSITIONS COMPRISING AND METHODS OF USING THE SAME” (priority 2008, published 2009).

Legend:
IL-2 = IL-2 production by T cells (anti-CD3 stimulated, ELISA); format: cell-based, human; settings: procedures substantially similar to Section 5.10
Experimental: PBMC are depleted of adherent monocytes by placing 1×10^8 PBMC in 10 ml complete medium (RPMI 1640 supplemented with 10% heat-inactivated fetal bovine serum, 2 mM L-glutamine, 100 U/ml penicillin, and 100 µg/ml streptomycin) per 10 cm tissue culture dish, in 37 C, 5% CO2 incubator for 30-60 minutes. The dish is rinsed with medium to remove all non-adherent PBMC. T cells are purified by negative selection using the following antibody (Pharmingen) and Dynabead (Dynal) mixture for every 1×10^8 non-adherent PBMC: 0.3 ml Sheep anti-mouse IgG beads, 15 1 anti-CD16, 15 1 anti-CD33, 15 1 anti-CD56, 0.23 ml anti-CD19 beads, 0.23 ml anti-HLA class II beads, and 56 1 anti-CD14 beads. The cells and bead/antibody mixture is rotated end-over-end for 30-60 minutes at 4 C. Purified T cells are removed from beads using a Dynal magnet. Typical yield is about 50% T cells, 87-95% CD3^+ by flow cytometry.
Tissue culture 96-well flat-bottom plates are coated with anti-CD3 antibody OKT3 at 5 μg/ml in PBS, 100 μl per well, incubated at 37° C. for 3-6 hours, then washed four times with complete medium 100 μl/well just before T cells are added. Compounds are diluted to 20 times of final in a round bottom tissue culture 96-well plate. Final concentrations are about 10 μM to about 0.00064 μM. A 10 mM stock of compounds provided herein is diluted 1:50 in complete for the first 20× dilution of 200 μM in 2% DMSO and serially diluted 1:5 into 2% DMSO. Compound is added at 10 μl per 200 l culture, to give a final DMSO concentration of 0.1%. Cultures are incubated at 37° C., 5% CO2 for 2-3 days, and supernatants analyzed for IL-2 and MIP-3 by ELISA (R&D Systems). IL-2 and MIP-3 levels are normalized to the amount produced in the presence of an amount of a compound provided herein, and EC50s calculated using non-linear regression, sigmoidal dose-response, constraining the top to 100% and bottom to 0%, allowing variable slope (GraphPad Prism v3.02).

TNFα = TNFα Inhibition Assay in PMBC (LPS-stimulated, ELISA); format: cell-based, human; settings: LPS-stimulated PBMC; procedures substantially similar to Section 5.10
Experimental: Peripheral blood mononuclear cells (PBMC) from normal donors are obtained by Ficoll Hypaque (Pharmacia, Piscataway, N.J., USA) density centrifugation. Cells are cultured in RPMI 1640 (Life Technologies, Grand Island, N.Y., USA) supplemented with 10% AB+human serum (Gemini Bio-products, Woodland, Calif., USA), 2 mM L-glutamine, 100 U/ml penicillin, and 100 µg/ml streptomycin (Life Technologies).
PBMC (2×10^5 cells) are plated in 96-well flat-bottom Costar tissue culture plates (Corning, N.Y., USA) in triplicate. Cells are stimulated with LPS (from Salmonella abortus equi, Sigma cat. no. L-1887, St. Louis, Mo., USA) at 1 ng/ml final in the absence or presence of compounds. Compounds provided herein are dissolved in DMSO (Sigma) and further dilutions are done in culture medium immediately before use. The final DMSO concentration in all assays can be about 0.25%. Compounds are added to cells 1 hour before LPS stimulation. Cells are then incubated for 18-20 hours at 37° C. in 5% CO2, and supernatants are then collected, diluted with culture medium and assayed for TNF levels by ELISA (Endogen, Boston, Mass., USA). IC50s are calculated using non-linear regression, sigmoidal dose-response, constraining the top to 100% and bottom to 0%, allowing variable slope (GraphPad Prism v3.02).

Namalwa cells = test: Cell proliferation assay (3H-thymidine incorporation); format: cell-based; settings: procedures substantially similar to Section 5.10
Experimental: Cell lines Namalwa, MUTZ-5, and UT-7 are obtained from the Deutsche Sammlung von Mikroorganismen und Zellkulturen GmbH (Braunschweig, Germany). The cell line KG-1 is obtained from the American Type Culture Collection (Manassas, Va., USA). Cell proliferation as indicated by ^3H-thymidine incorporation is measured in all cell lines as follows.
Cells are plated in 96-well plates at 6000 cells per well in media. The cells are pre-treated with compounds at about 100, 10, 1, 0.1, 0.01, 0.001, 0.0001 and 0 M in a final concentration of about 0.25% DMSO in triplicate at 37° C. in a humidified incubator at 5% CO2 for 72 hours. One microcurie of ^3H-thymidine (Amersham) is then added to each well, and cells are incubated again at 37 C in a humidified incubator at 5% CO2 for 6 hours. The cells are harvested onto UniFilter GF/C filter plates (Perkin Elmer) using a cell harvester (Tomtec), and the plates are allowed to dry overnight. Microscint 20 (Packard) (25 ÿl/well) is added, and plates are analyzed in TopCount NXT (Packard). Each well is counted for one minute. Percent inhibition of cell proliferation is calculated by averaging all triplicates and normalizing to the DMSO control (0% inhibition). Each compound is tested in each cell line in three separate experiments. Final IC50s are calculated using non-linear regression, sigmoidal dose-response, constraining the top to 100% and bottom to 0%, allowing variable slope. (GraphPad Prism v3.02).

melting point [°C] | SMILES | ability to stimulate IL-2 (activity range) (IL-2) | ability to inhibit TNFα (activity range) (TNFα) | ability to inhibit proliferation of Namalwa cells (activity range) (Namalwa cells)
– | Nc1cccc2c1CN(C1CCC(=S)NC1=O)C2=S (stereo not shown) [3-(4-Amino-1-thioxo-1,3-dihydro-isoindol-2-yl)-6-thioxo-piperidin-2-one] | μM-mM | μM-mM | μM-mM
– | Nc1cccc2c1CN(C1CCC(=O)NC1=O)C2=S (stereo not shown) [3-(4-Amino-1-thioxo-1,3-dihydro-isoindol-2-yl)-piperidine-2,6-dione] | μM-mM | μM-mM | μM-mM
248 to 250 | O=C1NC(=S)CCC1N1Cc2c(cccc2[N+](=O)[O-])C1=S (stereo not shown) [3-(4-Nitro-1-thioxo-1,3-dihydro-isoindol-2-yl)-6-thioxo-piperidin-2-one] | μM-mM | μM-mM | μM-mM
